The results in this text go back to patent US4443436A, “C-20-Modified macrolide derivatives of the macrolide antibiotics tylosin, desmycosin, macrocin, and lactenocin” (Eli Lilly and Company, priority 1982, dated 1984).

Assay type in all cases: cell-based
One assay has as its system Streptococcus Group 9960. Nature of the assay: MIC, standard agar-dilution assay, Streptococcus Group 9960.
Assay [1] concerns Streptococcus Group D X66. Nature of the assay: MIC, standard agar-dilution assay, Streptococcus Group D X66. The note with it: Streptococcus Group D X66, agar dilution. On the technique in general: In agar dilution, organisms are placed on agar that contains the substance at set levels.
Assay [2] relates to Staphylococcus aureus S13E. Put plainly: MIC, standard agar-dilution assay, Staphylococcus aureus S13E.
A further assay has as its system Staphylococcus aureus. Put plainly: MIC, broth-dilution microtiter test, Staphylococcus aureus. The text has this: (§1) The MIC's in Table X were obtained using conventional broth-dilution microtiter tests.
Assay [3] has as its system Streptococcus pneumoniae Park I. Put plainly: microbe, parasite or virus in culture. The note with it: Streptococcus pneumoniae Park I, agar dilution.
The test system of the next assay is Mycoplasma synoviae. Put plainly: MIC, broth-dilution microtiter test, Mycoplasma synoviae.
Source text: as §1

Assay [4] concerns Pasteurella multocida 17E. Nature of the assay: MIC, broth-dilution microtiter test, Pasteurella multocida 17E. The note with it: Pasteurella multocida 17E, bovine isolate, broth-dilution microtiter.
Source text: as §1

Assay [5] relates to Pasteurella multocida 60A. Nature of the assay: MIC, broth-dilution microtiter test, Pasteurella multocida 60A. The note with it: Pasteurella multocida 60A, avian isolate, broth-dilution microtiter.
Source text: as §1

Assay [6] has as its system Staphylococcus epidermidis EPI2. Nature of the assay: MIC, standard agar-dilution assay, Staphylococcus epidermidis EPI2.
For assay [7], the system named is Haemophilus influenzae R252. Put plainly: MIC, standard agar-dilution assay, Haemophilus influenzae R252.
Assay [8] has as its system Staphylococcus epidermidis EPI1. Put plainly: MIC, standard agar-dilution assay, Staphylococcus epidermidis EPI1.
Assay [9] has as its system Staphylococcus aureus X1.1. Put plainly: MIC, standard agar-dilution assay, Staphylococcus aureus X1.1.
The subject of assay [10] is Staphylococcus aureus X400. Put plainly: MIC, standard agar-dilution assay, Staphylococcus aureus X400.
A further assay has as its system Streptococcus bovis 80. Put plainly: MIC, broth-dilution microtiter test, Streptococcus bovis 80. The note with it: Streptococcus bovis 80, broth-dilution microtiter.
Source text: as §1

Assay [11] relates to Haemophilus influenzae Holt. Put plainly: MIC, standard agar-dilution assay, Haemophilus influenzae Holt. The note with it: Haemophilus influenzae Holt, ampicillin-sensitive strain.
The subject of another assay is Mycoplasma gallisepticum. Put plainly: MIC, broth-dilution microtiter test, Mycoplasma gallisepticum. The note with it: Mycoplasma gallisepticum, broth-dilution microtiter.
Source text: as §1

The next assay deals with Mycoplasma hyopneumoniae. Put plainly: MIC, broth-dilution microtiter test, Mycoplasma hyopneumoniae. The note with it: Mycoplasma hyopneumoniae, broth-dilution microtiter.
Source text: as §1

Assay [12] concerns Pasteurella hemolytica 22C. Nature of the assay: MIC, broth-dilution microtiter test, Pasteurella hemolytica 22C. The note with it: Pasteurella hemolytica 22C, broth-dilution microtiter.
Source text: as §1

For another assay, the system named is Mycoplasma hyorhinis. Nature of the assay: MIC, broth-dilution microtiter test, Mycoplasma hyorhinis.
Source text: as §1

Assay [13] relates to Streptococcus pyogenes C203. Nature of the assay: MIC, standard agar-dilution assay, Streptococcus pyogenes C203.
The test system of assay [14] is Staphylococcus aureus V41. Nature of the assay: MIC, standard agar-dilution assay, Staphylococcus aureus V41.
Setting [15] is: Staphylococcus epidermidis, EPI1.
The mark [16] stands for this setting: Streptococcus equinus, read-out: MIC.
The mark [17] stands for this setting: Mycoplasmoides gallisepticum, read-out: MIC.
Where [18] appears, read: Mesomycoplasma hyopneumoniae, read-out: MIC.

In brackets after ≈: the same amount, converted by molar mass. Read-outs that look alike come from different tables or passages of the source. Bounds are passed on as bounds.

As for `CCC1OC(=O)CC(O)C(C)C(OC2OC(C)C(OC3CC(C)(O)C(O)C(C)O3)C(N(C)C)C2O)C(CCOc2ccccc2)CC(C)C(=O)C=CC(C)=CC1COC1OC(C)C(O)C(O)C1OC` (stereo not drawn) [Compound 53, 20-DH-20-O-Phenylmacrocin], the MIC result against Streptococcus Group 9960 (Streptococcus Group 9960, agar dilution) was “-- (Not active at 128 mcg/ml, the highest level tested)”; in assay [1], “-- (Not active at 128 mcg/ml, the highest level tested)”; in [2] (Staphylococcus aureus S13E, agar dilution), 2 µg/mL (≈ 2.04 µM); with Staphylococcus aureus (broth-dilution microtiter), 0.39 µg/mL (≈ 0.398 µM); in assay [3], 32 µg/mL (≈ 32.6 µM); against Mycoplasma synoviae (Mycoplasma synoviae, broth-dilution microtiter), 3.12 µg/mL (≈ 3.18 µM). Moreover, the MIC in [4] is 25 µg/mL (≈ 25.5 µM); in [5], 12.5 µg/mL (≈ 12.8 µM); in assay [6] (Staphylococcus epidermidis EPI2, agar dilution), 2 µg/mL (≈ 2.04 µM); in assay [7] (Haemophilus influenzae R252, ampicillin-resistant strain, agar dilution), “-- (Not active at 128 mcg/ml, the highest level tested)”; in assay [8] (Staphylococcus epidermidis EPI1, agar dilution), 2 µg/mL (≈ 2.04 µM); in [9] (Staphylococcus aureus X1.1, agar dilution), 2 µg/mL (≈ 2.04 µM). The MIC in assay [10] (Staphylococcus aureus X400, methicillin-resistant strain, agar dilution) is 4 µg/mL (≈ 4.08 µM); in the assay on Streptococcus bovis 80, 6.25 µg/mL (≈ 6.38 µM); in assay [11] (agar dilution), “-- (Not active at 128 mcg/ml, the highest level tested)”; in the assay on Mycoplasma gallisepticum it was under 0.05 µg/mL; in the assay on Mycoplasma hyopneumoniae it was 0.78 µg/mL (≈ 0.796 µM); in [12] it was 25 µg/mL (≈ 25.5 µM). Further, the MIC in the assay on Mycoplasma hyorhinis (Mycoplasma hyorhinis, broth-dilution microtiter) was 50 µg/mL (≈ 51 µM); in [13] (Streptococcus pyogenes C203, agar dilution), 4 µg/mL (≈ 4.08 µM); in [14] (Staphylococcus aureus V41, penicillin-resistant strain, agar dilution), 2 µg/mL (≈ 2.04 µM).
As to `CCC1OC(=O)CC(O)C(C)C(OC2OC(C)C(OC3CC(C)(O)C(O)C(C)O3)C(N(C)C)C2O)C(CCOc2ccc([N+](=O)[O-])cc2)CC(C)C(=O)C=CC(C)=CC1COC1OC(C)C(O)C(OC)C1OC` (stereo not drawn) [Compound 12, 20-DH-20-O-(p-Nitrophenyl)tylosin], the MIC is over 128 µg/mL against Streptococcus Group 9960 (GROUP9960); 128 µg/mL (≈ 123 µM) in [1] (read-out: MIC); 1 µg/mL (≈ 0.962 µM) in assay [2] (Staphylococcus aureus, S13E); 1.56 µg/mL (≈ 1.5 µM) against Staphylococcus aureus; 16 µg/mL (≈ 15.4 µM) in assay [3] (read-out: MIC); 1.56 µg/mL (≈ 1.5 µM) against Mycoplasma synoviae (Mycoplasmopsis synoviae). Besides, the MIC was over 50 µg/mL in assay [4] (read-out: MIC); over 50 µg/mL in [5] (read-out: MIC); 0.5 µg/mL (≈ 0.481 µM) in assay [6] (Staphylococcus epidermidis EPI2, agar dilution, read-out: MIC); 128 µg/mL (≈ 123 µM) in assay [7] (Haemophilus influenzae, R252); 1 µg/mL (≈ 0.962 µM) in assay [8] (setting [15]); 1 µg/mL (≈ 0.962 µM) in [9] (Staphylococcus aureus, X1.1). The MIC in assay [10] (Staphylococcus aureus, X400) was 2 µg/mL (≈ 1.92 µM); in the assay with Streptococcus bovis 80 (setting [16]) it was 25 µg/mL (≈ 24.1 µM); in assay [11] (read-out: MIC), over 128 µg/mL; with Mycoplasma gallisepticum (setting [17]), 0.39 µg/mL (≈ 0.375 µM); with Mycoplasma hyopneumoniae (setting [18]), over 25 µg/mL; in [12] (read-out: MIC), over 50 µg/mL. The MIC in the assay with Mycoplasma hyorhinis (Mycoplasma) came to 50 µg/mL (≈ 48.1 µM); in [13] (Streptococcus pyogenes, C203), 2 µg/mL (≈ 1.92 µM); in assay [14] (Staphylococcus aureus, V41), 1 µg/mL (≈ 0.962 µM).
For `CCC1OC(=O)CC(O)C(C)C(OC2OC(C)C(OC3CC(C)(O)C(O)C(C)O3)C(N(C)C)C2O)C(CCOc2cc(Cl)cc(Cl)c2)CC(C)C(=O)C=CC(C)=CC1COC1OC(C)C(O)C(OC)C1OC` (stereo not drawn) [Compound 15, 20-DH-20-O-(3,5-Dichlorophenyl)tylosin], the MIC is over 128 µg/mL with Streptococcus Group 9960 (GROUP9960, Streptococcus Group 9960, agar dilution, read-out: MIC); over 128 µg/mL in assay [1] (read-out: MIC); 1 µg/mL (≈ 0.941 µM) in assay [2] (Staphylococcus aureus, S13E); 1.56 µg/mL (≈ 1.47 µM) in the assay on Staphylococcus aureus (broth-dilution microtiter, read-out: MIC); 16 µg/mL (≈ 15.1 µM) in [3] (read-out: MIC); 3.12 µg/mL (≈ 2.93 µM) with Mycoplasma synoviae (Mycoplasmopsis synoviae, Mycoplasma synoviae, broth-dilution microtiter, read-out: MIC). Moreover, the MIC was over 50 µg/mL in assay [4] (read-out: MIC); over 50 µg/mL in [5] (read-out: MIC); 1 µg/mL (≈ 0.941 µM) in assay [6] (Staphylococcus epidermidis, EPI2); over 128 µg/mL in assay [7] (Haemophilus influenzae R252, ampicillin-resistant strain, read-out: MIC); 2 µg/mL (≈ 1.88 µM) in [8] (setting [15]); 1 µg/mL (≈ 0.941 µM) in [9] (Staphylococcus aureus, X1.1). Further, the MIC in assay [10] (Staphylococcus aureus, X400) was 4 µg/mL (≈ 3.76 µM); in the assay with Streptococcus bovis 80 (setting [16]), 6.25 µg/mL (≈ 5.88 µM); in assay [11] (read-out: MIC), over 128 µg/mL; with Mycoplasma gallisepticum (setting [17]), 1.56 µg/mL (≈ 1.47 µM); with Mycoplasma hyopneumoniae (setting [18]) it was over 25 µg/mL; in assay [12] (read-out: MIC), over 50 µg/mL. Moreover, the MIC in the assay on Mycoplasma hyorhinis (Mycoplasma) worked out at 50 µg/mL (≈ 47 µM); in [13] (Streptococcus pyogenes, C203), 1 µg/mL (≈ 0.941 µM); in assay [14] (Staphylococcus aureus, V41), 2 µg/mL (≈ 1.88 µM).
